In patent US12697331B2, “Methods of use of T-type calcium channel modulators” (PRAXIS PRECISION MEDICINES, INC., priority 2020, dated 2026):
Where a name gives a salt, the structure may show the parent alone.

What was measured:
[1] = Within-participant escalating dose trial Part B: safety and tolerability (TEAEs); type: in vivo, human; conditions: titration 20 to 120 mg per day; no maximum tolerated dosage identified; hydrochloride
hCav3.1 = target: T1, hCav3.1 (Homo sapiens, UniProt O43497); assay: PatchXpress patch clamp, tonic block (resting state, -120 mV); type: cell-based
T1 construct: expressed in transfected cells; host or cells: HEK-293 (cultured under G418 selection)
Description: (§1) The voltage dependence of calcium channel isoforms was determined by comparing the activity of resting (Tonic Block) and half-inactivated (Voltage Dependent Block) voltages across various concentrations of Formula (II). First, HEK-293 cells containing hCav3.1, hCav3.2, or hCav3.3 calcium channel isoforms were prepared by seeding at 2×10^6 cells per flask in culture for 2 days; the cells were then harvested at about 6×10^6 cells. Harvested cells were washed once in DPBS for approximately 30 minutes, and 1 mL of 1× (0.05%) Trypsin-EDTA was added, swirled, and allowed to sit on the cells for approximately 4 minutes. 10 mL of warmed DMEM high glucose media supplemented with 10% fetal bovine serum, 2 mM sodium pyruvate, 10 mM HEPES, and 400 μg/mL G418 was added, and the cells were triturated until a single cell suspension was […]. Cells were placed in a 250 mL centrifuge tube with 30 mL warmed media and gently rocked at 28° C. for approximately 1 hour. Cell aliquots of 5 mLs (1×10^6 cells) were then centrifuged at 100× for 2 minutes, and supernatant was removed. Next, 100 μl of external recording solution was added to the remaining cell pellet and triturated 20 times to achieve a single cell suspension.
(§2) Immediately prior to assay, Formula (II) was diluted with DMSO to 300× the designated final concentration. All studies were performed using the Molecular Devices PatchXpress automated patch clamp platform at room temperature.
(§3) To determine the hCav3.1, hCav3.2, and hCav3.3 peak current from a resting, closed state (tonic block), currents were evokes by depolarizing pulses to −25 mV (10 ms) from −120 mV (a non-inactivated holding potential) at a frequency of 0.1 Hz. Peak current was defined as the peak inward current during Epoch 1 with no leak subtraction applied. Current stability was monitored, and the potency of each compound was determined using concentration response curves.
(§4) Pharmacology was measured during Epoch 1. Percent inhibition was calculated as: 100*((([Step 2+Step 5]/2)−Step 3)/(Step 2+Step 5/2)), wherein Step 2 is the peak current measured at baseline, Step 5 is the current measured during the wash period, and Step 3 is the peak current measured during application of the compound. The average of the final 3 consecutive currents in each experimental procedure was used for all calculations. The concentration response curve was fit with a Hill equation to derive IC50, slope, minimum response, and maximum response fitting parameters.

hCav3.3 = target: T2, hCav3.3 (Homo sapiens, UniProt Q9P0X4); assay: as above; type: cell-based
T2 construct: expressed in transfected cells; host or cells: HEK-293 (cultured under G418 selection)
Description: as §1, §2, §3, §4

hCav3.2 = target: T3, hCav3.2 (Homo sapiens, UniProt O95180); assay: as above; type: cell-based
T3 construct: expressed in transfected cells; host or cells: HEK-293 (cultured under G418 selection)
Description: as §1, §2, §3, §4

[2] = test system: sigma band EEG power during NREM sleep; assay: 24-hour EEG/PSG: sigma band EEG power during NREM sleep; type: in vivo, human
Description: The effects of multiple doses of a wider dose range (Part A: 5, 10, 20 mg; Part B: 60, 80, 100, 120 mg) on sigma band EEG power during NREM sleep were also evaluated as part of the protocol described in Example 11, above. 24-hour EEG/PSG recordings were performed the day before dosing (baseline day) and after dosing on Days 4, 8, and 12 (for Part A) or Days 10, 17, 24, and 31 (for Part B). Part B also included placebo-treated participants for statistical comparisons.

T3 sequence (O95180 whole entry): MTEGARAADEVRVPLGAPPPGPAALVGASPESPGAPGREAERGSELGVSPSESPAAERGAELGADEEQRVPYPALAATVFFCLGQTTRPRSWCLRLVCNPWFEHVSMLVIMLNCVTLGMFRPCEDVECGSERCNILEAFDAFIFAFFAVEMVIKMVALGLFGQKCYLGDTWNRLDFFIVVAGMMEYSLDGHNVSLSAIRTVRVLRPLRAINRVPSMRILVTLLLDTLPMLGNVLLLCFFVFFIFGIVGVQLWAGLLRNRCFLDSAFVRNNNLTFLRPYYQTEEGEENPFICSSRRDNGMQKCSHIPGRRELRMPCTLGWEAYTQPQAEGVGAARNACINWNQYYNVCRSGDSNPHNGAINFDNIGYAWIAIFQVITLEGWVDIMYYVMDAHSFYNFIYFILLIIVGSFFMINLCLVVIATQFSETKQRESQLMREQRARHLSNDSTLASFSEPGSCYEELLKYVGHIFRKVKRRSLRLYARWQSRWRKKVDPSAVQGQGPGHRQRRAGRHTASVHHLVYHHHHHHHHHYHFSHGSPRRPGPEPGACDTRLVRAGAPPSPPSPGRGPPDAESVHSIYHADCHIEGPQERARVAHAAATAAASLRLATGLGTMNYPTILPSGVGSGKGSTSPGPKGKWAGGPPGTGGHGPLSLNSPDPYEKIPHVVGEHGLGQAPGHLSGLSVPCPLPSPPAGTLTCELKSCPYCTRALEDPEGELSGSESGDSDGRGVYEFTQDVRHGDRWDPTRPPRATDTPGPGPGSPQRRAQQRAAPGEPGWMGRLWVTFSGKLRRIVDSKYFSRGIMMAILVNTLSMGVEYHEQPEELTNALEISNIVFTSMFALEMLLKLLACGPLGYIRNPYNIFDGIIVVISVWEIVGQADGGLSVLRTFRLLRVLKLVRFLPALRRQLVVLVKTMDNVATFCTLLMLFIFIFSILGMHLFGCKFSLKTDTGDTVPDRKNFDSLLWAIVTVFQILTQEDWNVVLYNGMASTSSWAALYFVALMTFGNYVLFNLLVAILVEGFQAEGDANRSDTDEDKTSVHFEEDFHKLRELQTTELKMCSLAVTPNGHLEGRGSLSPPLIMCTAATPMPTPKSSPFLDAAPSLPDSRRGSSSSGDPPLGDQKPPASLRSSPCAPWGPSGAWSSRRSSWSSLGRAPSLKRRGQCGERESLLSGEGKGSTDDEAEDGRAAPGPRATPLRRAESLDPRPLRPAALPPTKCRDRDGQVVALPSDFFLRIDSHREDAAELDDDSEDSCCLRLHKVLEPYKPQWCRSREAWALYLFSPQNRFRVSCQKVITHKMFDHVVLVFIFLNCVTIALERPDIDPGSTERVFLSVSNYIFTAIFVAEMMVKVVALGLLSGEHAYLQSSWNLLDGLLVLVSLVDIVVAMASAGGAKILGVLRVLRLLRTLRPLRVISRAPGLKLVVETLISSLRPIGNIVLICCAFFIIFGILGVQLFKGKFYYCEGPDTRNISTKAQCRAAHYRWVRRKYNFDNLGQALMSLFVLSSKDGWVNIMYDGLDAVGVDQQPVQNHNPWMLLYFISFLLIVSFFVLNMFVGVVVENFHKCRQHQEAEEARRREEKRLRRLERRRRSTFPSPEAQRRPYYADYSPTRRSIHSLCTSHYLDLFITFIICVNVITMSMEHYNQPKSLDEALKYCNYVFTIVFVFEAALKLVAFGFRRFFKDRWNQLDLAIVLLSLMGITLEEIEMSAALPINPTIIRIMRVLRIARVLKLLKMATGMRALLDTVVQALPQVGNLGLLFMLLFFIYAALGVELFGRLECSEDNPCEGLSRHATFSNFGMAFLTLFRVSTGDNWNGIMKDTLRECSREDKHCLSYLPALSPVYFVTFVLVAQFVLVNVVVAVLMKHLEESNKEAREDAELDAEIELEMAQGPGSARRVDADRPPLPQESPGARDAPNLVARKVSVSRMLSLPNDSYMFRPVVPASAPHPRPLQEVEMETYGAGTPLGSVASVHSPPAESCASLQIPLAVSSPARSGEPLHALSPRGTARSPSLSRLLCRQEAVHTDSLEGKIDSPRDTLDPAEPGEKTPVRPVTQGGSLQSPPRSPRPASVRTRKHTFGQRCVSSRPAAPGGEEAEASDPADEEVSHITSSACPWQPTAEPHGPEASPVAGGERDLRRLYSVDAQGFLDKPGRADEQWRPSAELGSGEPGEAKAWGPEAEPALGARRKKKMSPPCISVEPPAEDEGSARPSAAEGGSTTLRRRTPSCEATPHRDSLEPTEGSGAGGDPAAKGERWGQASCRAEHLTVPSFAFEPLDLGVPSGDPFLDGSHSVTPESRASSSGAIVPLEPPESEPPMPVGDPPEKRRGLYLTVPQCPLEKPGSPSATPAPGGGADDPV
T1 sequence (O43497 whole entry): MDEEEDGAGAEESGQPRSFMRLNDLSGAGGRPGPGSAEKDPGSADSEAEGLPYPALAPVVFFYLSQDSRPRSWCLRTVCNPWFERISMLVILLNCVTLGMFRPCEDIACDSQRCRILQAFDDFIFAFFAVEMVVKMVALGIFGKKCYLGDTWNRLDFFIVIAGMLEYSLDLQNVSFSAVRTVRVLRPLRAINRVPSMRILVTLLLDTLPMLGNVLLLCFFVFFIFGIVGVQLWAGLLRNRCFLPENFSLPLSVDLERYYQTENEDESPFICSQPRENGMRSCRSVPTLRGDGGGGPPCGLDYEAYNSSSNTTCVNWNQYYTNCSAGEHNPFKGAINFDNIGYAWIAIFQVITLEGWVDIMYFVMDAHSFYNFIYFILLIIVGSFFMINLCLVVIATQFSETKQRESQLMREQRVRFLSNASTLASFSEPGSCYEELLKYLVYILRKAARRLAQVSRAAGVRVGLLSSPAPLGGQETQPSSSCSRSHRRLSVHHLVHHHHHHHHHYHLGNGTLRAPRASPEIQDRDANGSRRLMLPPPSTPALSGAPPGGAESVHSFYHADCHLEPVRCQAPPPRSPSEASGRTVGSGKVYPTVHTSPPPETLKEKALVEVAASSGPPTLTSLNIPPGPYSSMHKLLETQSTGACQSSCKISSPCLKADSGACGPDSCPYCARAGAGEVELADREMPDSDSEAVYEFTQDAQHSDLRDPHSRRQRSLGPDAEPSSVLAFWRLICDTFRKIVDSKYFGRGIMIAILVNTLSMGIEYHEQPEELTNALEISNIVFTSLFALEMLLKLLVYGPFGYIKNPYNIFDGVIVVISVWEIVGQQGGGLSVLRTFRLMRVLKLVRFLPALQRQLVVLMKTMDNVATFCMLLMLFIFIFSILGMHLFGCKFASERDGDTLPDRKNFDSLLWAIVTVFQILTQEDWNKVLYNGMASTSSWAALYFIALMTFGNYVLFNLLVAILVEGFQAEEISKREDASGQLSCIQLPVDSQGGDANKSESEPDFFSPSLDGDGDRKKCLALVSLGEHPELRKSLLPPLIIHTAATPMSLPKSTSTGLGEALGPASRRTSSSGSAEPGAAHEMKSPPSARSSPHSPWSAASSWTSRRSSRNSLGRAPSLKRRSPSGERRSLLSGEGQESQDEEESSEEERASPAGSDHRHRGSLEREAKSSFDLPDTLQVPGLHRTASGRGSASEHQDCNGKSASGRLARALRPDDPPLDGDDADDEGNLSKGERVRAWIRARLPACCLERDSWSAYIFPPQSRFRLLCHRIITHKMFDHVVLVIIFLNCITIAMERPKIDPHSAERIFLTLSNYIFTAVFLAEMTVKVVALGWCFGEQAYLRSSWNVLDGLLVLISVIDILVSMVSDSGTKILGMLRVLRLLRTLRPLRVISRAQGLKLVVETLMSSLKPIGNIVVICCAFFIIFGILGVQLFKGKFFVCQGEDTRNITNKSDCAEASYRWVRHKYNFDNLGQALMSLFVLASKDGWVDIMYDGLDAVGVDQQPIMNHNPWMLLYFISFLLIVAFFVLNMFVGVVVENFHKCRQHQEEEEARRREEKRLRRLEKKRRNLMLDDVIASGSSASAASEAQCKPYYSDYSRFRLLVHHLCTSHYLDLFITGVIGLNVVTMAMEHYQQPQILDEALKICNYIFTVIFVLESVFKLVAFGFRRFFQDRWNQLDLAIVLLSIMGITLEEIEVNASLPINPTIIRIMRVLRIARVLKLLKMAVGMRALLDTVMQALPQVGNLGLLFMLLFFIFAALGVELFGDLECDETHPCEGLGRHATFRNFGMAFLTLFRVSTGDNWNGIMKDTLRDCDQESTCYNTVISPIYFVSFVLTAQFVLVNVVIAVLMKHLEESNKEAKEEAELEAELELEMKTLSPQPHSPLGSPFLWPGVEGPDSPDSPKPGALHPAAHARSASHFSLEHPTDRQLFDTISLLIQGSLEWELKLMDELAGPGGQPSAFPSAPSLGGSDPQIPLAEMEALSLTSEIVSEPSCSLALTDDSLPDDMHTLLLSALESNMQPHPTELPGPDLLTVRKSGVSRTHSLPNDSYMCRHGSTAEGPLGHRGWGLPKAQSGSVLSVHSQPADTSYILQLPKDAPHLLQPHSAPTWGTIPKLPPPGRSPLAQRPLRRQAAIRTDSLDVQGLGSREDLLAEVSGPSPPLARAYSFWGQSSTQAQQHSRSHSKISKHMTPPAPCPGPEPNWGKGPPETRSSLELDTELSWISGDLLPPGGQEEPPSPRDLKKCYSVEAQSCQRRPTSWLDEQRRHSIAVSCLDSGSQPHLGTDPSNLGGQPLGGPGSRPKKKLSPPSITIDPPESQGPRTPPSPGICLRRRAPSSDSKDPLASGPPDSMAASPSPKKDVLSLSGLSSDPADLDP

With `CC(C)(C)NC(=O)CN1CCC(CNC(=O)c2cc(F)cc(Cl)c2)CC1` [compound of formula (II), N-((1-(2-(tert-butylamino)-2-oxoethyl)piperidin-4-yl)methyl)-3-chloro-5-fluorobenzamide hydrochloride] the “Dose levels well-tolerated with a titrated dosing schedule” value [1] was “up to 120 mg per day”, the “Inhibition of peak current, tonic block, Mean” value (“Inhibition of peak current” below) (hCav3.1; 0.09 μm) was 8.8 (7) % and the “Inhibition of peak current” value (hCav3.1; 0.27 μm) was 29.4 (11) %. For the same compound, the “Inhibition of peak current” value (hCav3.1; 0.91 μm) was 50.2 (9) %, the “Inhibition of peak current” value (hCav3.1; 2.74 μm) was 67.5 (10) % and the “Inhibition of peak current” value (hCav3.1; 9.13 μm) was 76.6 (9) %. The “Inhibition of peak current” value (hCav3.1; 27.40 μm) was 89.5 (4) %, the “Inhibition of peak current” value (hCav3.3; 0.09 μm) was 3.8 (7) % and the “Inhibition of peak current” value (hCav3.3; 0.27 μm) was 23.0 (11) %. For the same compound, the “Inhibition of peak current” value (hCav3.3; 0.91 μm) was 54.5 (5) %, the “Inhibition of peak current” value (hCav3.3; 2.74 μm) was 77.1 (6) % and the “Inhibition of peak current” value (hCav3.3; 9.13 μm) was 92.1 (5) %. For the same compound, the “Inhibition of peak current” value (hCav3.3; 27.40 μm) was 94.6 (5) %, the “Inhibition of peak current” value (hCav3.2; 0.09 μm) was 12.6 (4) % and the “Inhibition of peak current” value (hCav3.2; 0.27 μm) was 37.1 (6) %. For the same compound, the “Inhibition of peak current” value (hCav3.2; 0.91 μm) was 55.1 (13) %, the “Inhibition of peak current” value (hCav3.2; 2.74 μm) was 76.2% and the “Inhibition of peak current” value (hCav3.2; 9.13 μm) was 89.7%. For the same compound, the “Inhibition of peak current” value (hCav3.2; 27.40 μm) was 96.9%, the “Inhibition of peak current” value (hCav3.2; 91.33 μm) was 98.2% and the “Effect on NREM sigma band as compared to a placebo control” value ([2]; 20 mg tablet and 40 mg tablet (FIG. 12)) was “decrease”. For the same compound, the “NREM sigma power, Difference Ratio Formula (II) v. Placebo” value ([2]; Day 10 (60 mg), Part B) was 0.550 and the “Dose at which the decrease in sigma band EEG power plateaued” value ([2]; Part B, relative to placebo-treated subjects) was 80 mg.
